Results published in patent US20230138414A1, “METHODS AND COMPOSITIONS FOR PREVENTING AND TREATING MYOPIA” (The Trustees of Columbia University in the City of New York, priority 2020, published 2023).
Counter-ions that a name gives are not always drawn. Like-named read-outs stand apart in the source and are kept apart here.

Experiments:
[1] = test system: mice with experimentally induced myopia; experiment: Lens-induced myopia (-25 D lens over right eye, 3 weeks), drug in diet; format: in vivo, C57BL/6J (B6) mice; conditions: for interocular difference in refractive error between lens-treated eyes and control eyes: after 3 weeks of lens treatment, control group -10.47 ± 3.02 D; for inhibition (suppression) of myopia: systemic oral administration, 3 weeks, -25 D lens, B6 mice
Description: Myopia was induced in 24-days old C57BL/6J (B6) mice by attaching -25 diopter (D) lens placed in a plastic 3D-printed frame over right eye. The contralateral eye served as control. Mice were raised with lenses for 3 weeks (FIG. 1A). After 3 weeks, the lenses were removed and refractive errors in the lens-treated eyes and contralateral control eyes were compared. Lens-treatment produced myopia in the lens-treated eyes (average refractive error = -14.6 ± 0.3 D) relative to the control eyes (average refractive error = +0.6 ± 0.6 D) (FIG. 1B); the interocular difference in refractive error (-15.2 ± 0.7 D) was highly significant (P < 0.0001). […] The diameter of lens-treated eyes was on average 65 ± 8 µm larger (P < 0.0001; FIG. 1C), and the vitreous chamber depth in the lens-treated eyes was 61 ± 4 µm longer (P < 0.0001; FIG. 1C), than that of the control fellow eyes.
The experimental group of B6 mice was raised with -25 D lenses over right eye (as described in Example 1) on a diet supplemented with 5 mg/kg of levocabastine hydrochloride for 3 weeks, while the control group of B6 mice with -25 D lenses over right eye was raised on a regular non-medicated diet. The interocular difference in refractive error between lens-treated eyes and control eyes in the levocabastine-treated animals after 3 weeks of lens treatment was +0.55 ± 2.32 D versus -10.47 ± 3.02 D in the control group, P-value = 2.83 × 10^-10.
(§1) The experimental group of B6 mice was raised with -25 D lenses over right eye on a diet supplemented with 1 mg/kg of fenoterol hydrobromide for 3 weeks, while the control group of B6 mice with -25 D lenses over right eye was raised on a regular non-medicated diet. The interocular difference in refractive error between lens-treated eyes and control eyes in the fenoterol-treated animals after 3 weeks of lens treatment was -0.8 ± 1.80 D versus -10.47 ± 3.02 D in the control group, P = 2.47 × 10^-08.
as §1, with “trichostatin A” for “fenoterol hydrobromide”, “trichostatin-A-treated” for “fenoterol-treated”, “0.48” for “-0.8”, “1.46” for “1.80”, “4.43” for “2.47”, “10^-10.” for “10^-08.”
(§2) The experimental group of B6 mice was raised with -25 D lenses over right eye on a diet supplemented with 0.3 mg/kg of fingolimod phosphate for 3 weeks, while the control group of B6 mice with -25 D lenses over right eye was raised on a regular non-medicated diet. The interocular difference in refractive error between lens-treated eyes and control eyes in the fingolimod-treated animals after 3 weeks of lens treatment was -0.02 ± 1.58 D versus -10.47 ± 3.02 D in the control group, P = 4.63 × 10^-9.
The experimental group of B6 mice was raised with -25 D lenses over right eye on a diet supplemented with 20 mg/kg of berberine chloride for 3 weeks, while the control group of B6 mice with -25 D lenses over right eye was raised on a regular non-medicated diet. The interocular difference in refractive error between lens-treated eyes and control eyes in the berberine-treated animals after 3 weeks of lens treatment was -5.15 ± 1.22 D versus -10.47 ± 3.02 D in the control group, P = 1.31 × 10^-4.
as §2, with “10” for “0.3”, “S-methyl-L-thiocitrulline hydrochloride” for “fingolimod phosphate”, “S-methyl-L-thiocitrulline-treated” for “fingolimod-treated”, “-0.28” for “-0.02”, “2.17” for “1.58”, “6.73” for “4.63”

[2] = test system: experimentally induced myopia; conditions: chickens; cited from earlier work
experimental myopia = conditions: tree shrews, rhesus monkeys, and chickens; cited from earlier work
myopia development [3] = conditions: chicken, mouse and non-human primates; cited from earlier work
[4] = test system: progression of myopia in children; conditions: cited from earlier work
myopia development [5] = conditions: chickens and guinea pigs; cited from earlier work
progression of myopia [6] = conditions: guinea pigs; cited from earlier work
sclera = conditions: rabbit, in vivo; cited from earlier work
[7] = test system: progression of myopia in children; conditions: daily oral 400 mg (∼15 mg/kg), cited from earlier work
myopia [8] = conditions: 300 mg/kg dose, guinea pigs; cited from earlier work
induced myopia = conditions: 30 mg/kg dose, rabbits; cited from earlier work
myopia [9] = conditions: monkeys; effect strongly depended on the genetic background; cited from earlier work
myopia [10] = conditions: guinea pigs; cited from earlier work
mouse model of myopia = conditions: cited from earlier work
progression of myopia [11] = conditions: 1-year period, cited from earlier work
[12] = test system: development of ocular components and emmetropization; conditions: juvenile primates; cited from earlier work
progression of myopia [13] = conditions: cited from earlier work
[14] = test system: progression of myopia in children; conditions: cited from earlier work; remark: listed apart in the source

Structure (SMILES): CC(Cc1ccc(O)cc1)NCC(O)c1cc(O)cc(O)c1 (stereo not shown) [fenoterol hydrobromide]
- interocular difference in refractive error between lens-treated eyes and control eyes ([1]; diet supplemented with 1 mg/kg): -0.8 ± 1.80 D

Structure (SMILES): N=C(N)NC(=O)Cc1c(Cl)cccc1Cl [guanfacine]
- inhibition of experimentally induced myopia [2]: inhibit experimentally induced myopia

Structure (SMILES): C[C@@H]1OC(=O)[C@H]2C[C@H]3CCCC[C@@H]3[C@@H](/C=C/[C@H]3CCC[C@H](C)N3C)[C@@H]12 [himbacine]
- inhibition of the development of experimental myopia (experimental myopia): inhibit the development of experimental myopia

Structure (SMILES): C[C@@H]1CN([C@H]2CC[C@](C#N)(c3ccc(F)cc3)CC2)CC[C@]1(C(=O)O)c1ccccc1 [levocabastine hydrochloride]
- interocular difference in refractive error between lens-treated eyes and control eyes ([1]; diet supplemented with 5 mg/kg): +0.55 ± 2.32 D

Structure (SMILES): CN1CCc2cccc3c2[C@H]1Cc1ccc(O)c(O)c1-3 [apomorphine]
- inhibition of myopia development (myopia development [3]): inhibit myopia development

Structure (SMILES): CC(=C\[C@@H](C)C(=O)c1ccc(N(C)C)cc1)/C=C(\C)C(=O)NO [trichostatin A]
- interocular difference in refractive error between lens-treated eyes and control eyes ([1]; diet supplemented with 1 mg/kg): 0.48 ± 1.46 D
- inhibition (suppression) of myopia ([1]; 1 mg/kg in diet): more than 100%

Structure (SMILES): CN1CCN(CC(=O)N2c3ccccc3C(=O)Nc3cccnc32)CC1 [pirenzepine]
- inhibition of the development of experimental myopia (experimental myopia): inhibit the development of experimental myopia
- suppression of the progression of myopia ([4]; children): 40%
- side effects ([4]; clinical trials eventually discontinued): serious side effects

Structure (SMILES): [H]/N=C(\NCCC[C@H](N)C(=O)O)SC [S-methyl-L-thiocitrulline hydrochloride]
- interocular difference in refractive error between lens-treated eyes and control eyes ([1]; diet supplemented with 10 mg/kg): -0.28 ± 2.17 D
- inhibition (suppression) of myopia ([1]; 10 mg/kg in diet): approximately 97%

Structure (SMILES): NCCCP(=O)(O)CC1CCCCC1 [CGP46381]
- suppression of myopia development (myopia development [5]): suppress myopia development

Structure (SMILES): CP(=O)(O)C1=CCNCC1 [TPMPA, (1,2,5,6-tetrahydropyridin-4yl) methylphosphinic acid]
- suppression of myopia development (myopia development [5]): suppress myopia development

Structure (SMILES): CC(C)OC(=O)CCC/C=C\C[C@@H]1[C@@H](CC[C@@H](O)CCc2ccccc2)[C@H](O)C[C@@H]1O [latanoprost]
- reduction of progression of myopia (progression of myopia [6]): reduce progression of myopia

Structure (SMILES): Cn1cnc2[nH]c(=O)[nH]c(=O)c21 [7-MX, 7-methylxanthine]
- changes in the sclera (sclera): thickening of the sclera and an increase in the diameter of the scleral collagen fibrils
- effect on myopia progression ([7]; subjects with high rates of progression): no effect
- suppression of myopia ([7]; subjects with slow progressing myopia): approximately 22%
- suppression of myopia (myopia [8]): 49%
- reduction of the extent of induced myopia (induced myopia): approximately 67%
- suppression of myopia (myopia [9]): can suppress myopia in primates

Structure (SMILES): CCCCCCCCc1ccc(CCC(N)(CO)COP(=O)(O)O)cc1 (stereo not shown) [fingolimod phosphate, fingolimod (FTY720) phosphate]
- interocular difference in refractive error between lens-treated eyes and control eyes ([1]; diet supplemented with 0.3 mg/kg): -0.02 ± 1.58 D

Structure (SMILES): Brc1c(NC2=NCCN2)ccc2nccnc12 [brimonidine]
- inhibition of experimentally induced myopia [2]: suppressed myopia
- suppression of myopia (myopia [10]): suppressed myopia

Structure (SMILES): Clc1cccc(Cl)c1N=C1NCCN1 [clonidine]
- inhibition of experimentally induced myopia [2]: inhibit experimentally induced myopia

Structure (SMILES): CCCCP(=O)(O)C1CCC(N)C1 (stereo not shown) [3-ACPBPA, (3-aminocyclopentanyl) butylphosphinic acid]
- suppression of myopia development (myopia development [5]): suppress myopia development

Structure (SMILES): COc1ccc2cc3[n+](cc2c1OC)CCc1cc2c(cc1-3)OCO2 [berberine chloride]
- interocular difference in refractive error between lens-treated eyes and control eyes ([1]; diet supplemented with 20 mg/kg): -5.15 ± 1.22 D
- inhibition (suppression) of myopia ([1]; 20 mg/kg in diet): approximately 50%

Structure (SMILES): CC(/C=C/C=C(\C)C(=O)O)=C\C=C\C=C(C)\C=C\C=C(/C)C(=O)O [crocetin]
- outcome of drug screen (mouse model of myopia): potential anti-myopia agent

Structure (SMILES): CN1[C@@H]2CC[C@H]1C[C@@H](OC(=O)C(CO)c1ccccc1)C2 (stereo partly shown) [atropine]
- retardation of progression of myopia (progression of myopia [11]; 0.01% atropine): 27%
- retardation of progression of myopia (progression of myopia [11]; 0.025% atropine): 43%
- retardation of progression of myopia (progression of myopia [11]; 0.05% atropine): 67%
- long-term effects on development of ocular components and emmetropization [12]: long-term adverse effects
- retardation of the progression of myopia (progression of myopia [13]; 1% atropine eye drops, 2-year treatment period): approximately 76%
- side effects (progression of myopia [13]; 1% atropine): photophobia, reduced accommodation amplitude, and blurred vision
- long-term suppression effect ([14]; 0.01% atropine, 5-year follow up study): approximately 30%
- drop of the progression rate after cessation of treatment ([14]; 0.01% atropine, after cessation of treatment): approximately 30%
- retardation of the progression of myopia ([14]; 0.01% atropine, children): 59%
- retardation of the progression of myopia ([14]; 0.1% atropine, children): 68%
- suppression of the progression of myopia ([14]; 0.5% atropine, children): 75%
